In brackets after ≈: the same amount, converted by molar mass. Entries after “also recorded” stand apart in the source; their conditions may differ. Counter-ions that a name gives are not always drawn.
Experiments:
[1] = Solubility test by UV-Vis spectroscopy of saturated solutions; type: physicochemical; conditions: saturated solution; for Solubility Water: ultrapure water
Procedure: All UV-Vis measurements were carried out with an Agilent Cary 60 UV-Vis 2.00 between 800-200 nm. The absorbance was measured with a scan rate of 300.0 nm/min, a data interval of 0.50 nm and an UV-Vis Average Time of 0.10 s. For all measurements a cuvette with 10 mm light path was used. A calibration curve was plotted from several different concentrations and the solubility of the respective compound was determined by measuring the absorbance of a diluted saturated solution. As a blank curve a mixture of ultrapure water and ethanol in a ratio of 1:1 or 5:95 was recorded. For the calibration curve a 100 μM or a 10 μM solution of the compound in an ultrapure water:ethanol (1:1) or (5:95)-mixture was prepared and diluted to obtain at least 6 concentrations. […] The supernatant was taken using a syringe and filtered through a syringe filter (RC Membrane). The saturated solution was diluted with ultrapure water and ethanol to obtain an appropriate concentration in a water:ethanol (1:1) or (5:95)-mixture. The long wave absorbance maximum was used for determination of the solubility (mean values, determination in triplicate). […] By plotting the concentration of the solution against the absorbance values at the previously determined wavelength maximum a calibration curve was obtained (FIG. 1B).

[2] = system: MOLM-13 (acute myeloid leukemia); assay: CellTiter-Blue Cell Viability Assay, MOLM-13; type: cell-based; conditions: Homo sapiens
Procedure: (§1) EOL-1 (acute myeloid eosinophilic leukemia), MOLM-13 (acute myeloid leukemia), MONO-MAC-1 (acute monocytic leukemia), and MONO-MVAC-6 (acute monocytic leukemia). In vitro screening was performed by Charles River using the CellTiter-Blue® Cell Viability Assay.

[3] = biological target: T1, c-KIT (Homo sapiens, UniProt P10721); assay: Cellular c-KIT phosphorylation assay in Mo7e cells (sandwich-ELISA); type: cell-based; conditions: Mo7e cells, 90 min compound, SCF stimulation; read-out: IC50 [nM] inhibition of c-KIT in phosphorylation assay
T1 construct: expresses endogenously a high level of wild-type c-KIT; endogenous in cells; host or cells: Mo7e (human acute megakaryoblastic leukemia)
T1 sequence (P10721 26-976): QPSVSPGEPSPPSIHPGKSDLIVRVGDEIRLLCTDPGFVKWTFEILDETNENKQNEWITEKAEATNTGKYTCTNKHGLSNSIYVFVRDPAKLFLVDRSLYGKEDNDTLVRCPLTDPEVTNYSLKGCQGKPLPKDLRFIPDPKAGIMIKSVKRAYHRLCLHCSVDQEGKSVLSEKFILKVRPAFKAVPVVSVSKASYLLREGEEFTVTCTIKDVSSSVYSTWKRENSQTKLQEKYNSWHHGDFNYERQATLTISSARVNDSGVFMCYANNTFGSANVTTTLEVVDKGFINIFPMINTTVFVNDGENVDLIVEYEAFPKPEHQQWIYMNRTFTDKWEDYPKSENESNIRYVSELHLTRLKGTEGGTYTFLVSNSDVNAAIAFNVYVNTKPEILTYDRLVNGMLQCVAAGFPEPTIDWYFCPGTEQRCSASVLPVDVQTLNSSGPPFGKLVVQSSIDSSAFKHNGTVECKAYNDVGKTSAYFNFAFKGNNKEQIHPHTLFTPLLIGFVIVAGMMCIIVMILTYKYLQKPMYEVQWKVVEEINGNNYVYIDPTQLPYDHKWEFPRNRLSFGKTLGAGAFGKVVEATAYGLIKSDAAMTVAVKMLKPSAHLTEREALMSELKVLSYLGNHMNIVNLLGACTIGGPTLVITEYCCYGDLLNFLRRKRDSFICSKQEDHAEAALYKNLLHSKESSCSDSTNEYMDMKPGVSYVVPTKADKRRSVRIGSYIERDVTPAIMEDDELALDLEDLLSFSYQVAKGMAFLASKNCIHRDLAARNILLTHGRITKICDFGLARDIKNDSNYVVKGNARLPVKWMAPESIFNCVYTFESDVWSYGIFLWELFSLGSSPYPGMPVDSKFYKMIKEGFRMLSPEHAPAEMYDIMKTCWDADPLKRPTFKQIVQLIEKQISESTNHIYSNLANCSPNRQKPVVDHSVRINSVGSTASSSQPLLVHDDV
Procedure: In the cellular c-KIT phosphorylation assay the human acute megakaryoblastic leukemia cell line Mo7e was used, which expresses endogenously a high level of wild-type c-KIT. Stimulation of these cells with human stem cell factor (SCF) results in receptor tyrosine autophosphorylation. Mo7e cells were plated in RPMI supplemented with 20% FCS and 10 ng/ml GM-CSF in multiwell cell culture plates. After serum- and growth factor-starvation overnight cells were incubated with compounds (90 min at 37° C.) in serum-free medium. […] For stimulation, cells were treated with 100 ng/ml SCF for 3 min at room temperature. After cell lysis quantification of receptor autophosphorylation was assessed in 96 well plates via sandwich-ELISA using a kinase specific capture antibody and an anti-phosphotyrosine detection antibody.

[4] = biological target: T2, human FLT3-ITD (Homo sapiens, UniProt P36888); assay: Cellular FLT3-ITD phosphorylation assay in MEF-FLT3-ITD cells (sandwich-ELISA); type: cell-based; conditions: 90 min compound, FLT3-ligand stimulation, read-out: IC50 FLT3-ITD [nM] in phosphorylation assay
T2 sequence (P36888 1-993): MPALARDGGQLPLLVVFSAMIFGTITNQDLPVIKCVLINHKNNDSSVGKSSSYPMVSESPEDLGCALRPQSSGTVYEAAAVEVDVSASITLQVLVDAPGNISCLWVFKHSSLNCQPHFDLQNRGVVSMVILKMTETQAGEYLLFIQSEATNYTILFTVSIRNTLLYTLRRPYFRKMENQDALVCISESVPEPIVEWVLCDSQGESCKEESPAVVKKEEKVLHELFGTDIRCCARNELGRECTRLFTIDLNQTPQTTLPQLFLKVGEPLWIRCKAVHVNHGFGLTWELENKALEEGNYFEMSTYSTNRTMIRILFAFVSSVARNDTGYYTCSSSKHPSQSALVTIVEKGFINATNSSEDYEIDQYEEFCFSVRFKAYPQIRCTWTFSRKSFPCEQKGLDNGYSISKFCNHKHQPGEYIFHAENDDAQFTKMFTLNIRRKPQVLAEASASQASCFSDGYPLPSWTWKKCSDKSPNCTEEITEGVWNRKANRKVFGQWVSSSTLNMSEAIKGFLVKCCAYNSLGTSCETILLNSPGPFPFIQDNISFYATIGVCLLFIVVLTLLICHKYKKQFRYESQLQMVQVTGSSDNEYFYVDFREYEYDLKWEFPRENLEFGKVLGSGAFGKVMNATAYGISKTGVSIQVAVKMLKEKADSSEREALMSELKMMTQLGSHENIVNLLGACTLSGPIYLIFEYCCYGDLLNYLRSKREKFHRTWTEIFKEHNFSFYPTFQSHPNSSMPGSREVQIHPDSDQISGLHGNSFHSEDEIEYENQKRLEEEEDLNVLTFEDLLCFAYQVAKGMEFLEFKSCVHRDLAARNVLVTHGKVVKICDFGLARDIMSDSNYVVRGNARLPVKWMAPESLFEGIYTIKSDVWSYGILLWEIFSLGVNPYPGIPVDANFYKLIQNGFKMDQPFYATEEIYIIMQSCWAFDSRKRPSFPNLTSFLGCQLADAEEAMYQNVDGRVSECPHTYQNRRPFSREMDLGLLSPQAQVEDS
Procedure: In the cellular FLT3-ITD phosphorylation assay the murine embryonal fibroblast cell line (MEF) was used, which expresses a high level of exogenously introduced full-length human FLT3-ITD. Stimulation of these cells with human FLT3-Ligand results in receptor tyrosine autophosphorylation. MEF-FLT3-ITD cells were plated in DMEM supplemented with […] in multiwell cell culture plates. After serum-starvation overnight cells were incubated with compounds (90 min at 37° C.) in serum-free medium. […] For stimulation, cells were treated with 50 ng/ml FLT3-ligand for 5 min at room temperature. After cell lysis quantification of receptor autophosphorylation was assessed in 96 well plates via sandwich-ELISA using a kinase specific capture antibody and an antiphosphotyrosine detection antibody.

[5] = system: MONO-MAC-6 (acute monocytic leukemia); assay: CellTiter-Blue Cell Viability Assay, MONO-MAC-6; type: cell-based; conditions: Homo sapiens
Procedure: as §1

[6] = system: EOL-1 (acute myeloid eosinophilic leukemia); assay: CellTiter-Blue Cell Viability Assay, EOL-1; type: cell-based; conditions: Homo sapiens, EOL1
Procedure: as §1

[7] = system: four hematological cell lines; assay: CellTiter-Blue Cell Viability Assay, all four hematological cell lines; type: cell-based; conditions: geometric mean over EOL-1, MOLM-13, MONO-MAC-1, MONO-MAC-6; read-out: IC50 [μM] Geomean
Procedure: as §1

[8] = system: MONO-MAC-1 (acute monocytic leukemia); assay: CellTiter-Blue Cell Viability Assay, MONO-MAC-1; type: cell-based
Procedure: as §1

[9] = Solubility test by UV-Vis spectroscopy of saturated solutions; type: physicochemical; conditions: solvent DMSO
[10] = system: subcutaneous MV4-11 CDX model; assay: In vivo efficacy study in subcutaneous MV4-11 CDX model in NOD/SCID mice; conditions: for number of living subjects, day of study 5 / number of living subjects, day of study 6 / number of living subjects, day of study 8 / number of living subjects, day of study 13 / number of living subjects, day of study 26 / number of living subjects, day of study 36: 5 mice
[11] = In vivo MTD study in non-tumor bearing NOD/SCID mice
Procedure: . Group information and dosing details can be seen in the following Table 7.
. Acclimatization occurred for at least 14 days. […] Dosing of 34c was done as a solution in deionized water, initiated on day 1 and continued for 5 days. One mouse in the 50 mg/kg po group and one in the 75 mg/kg po group lost more weight than 10% in the dosing phase of the study. The weight loss in the 50 mg/kg group was observed after receiving three doses of 34c and after receiving four doses of 34c in the […]. A dosing break was made until the end of dosing for both mice and after a couple of days during the 10-day observation period both mice regained their weight. The body weight was measured daily for all three oral treatment groups for the 5 days of dosing and the following 10-day observational period. The mean relative body weight of the oral treatment group can be seen in FIG. 2. […] Since this observation was made only after dosing, it can be considered it was not caused by the compound.

SMILES: CN1CCN(Cc2c(O)ccc3[nH]c(C(=O)c4cc5cc(NC(=O)Nc6cc(C(C)(C)C)on6)ccc5o4)cc23)CC1 [Compound 33b, 1-(5-(tert-Butyl)isoxazol-3-yl)-3-(2-(5-hydroxy-4-((4-methylpiperazin-1-yl)methyl)-1H-indole-2-carbonyl)benzofuran-5-yl)urea bis(2,2,2-trifluoroacetate)]
- Solubility Ethanol ([1]; bis(2,2,2-trifluoroacetate)): 3630 µg/mL (≈ 6.36 mM)
- IC50 [2]: 0.00109 µM
- IC50 [3]: 3.2 nM
- IC50 [4]: 6.9 nM
- IC50 [5]: 0.00431 µM
- IC50 [6]: 0.05 nM
- IC50 [7]: 0.00223 µM
- IC50 [8]: 0.1 µM

SMILES: CN(C)Cc1c(O)ccc2[nH]c(C(=O)c3cc4cc(NC(=O)Nc5cc(C(C)(C)C)on5)ccc4o3)cc12 [Compound 34b, 1-(5-tert-Butylisoxazol-3-yl)-3-(2-(4-((dimethylamino)methyl)-5-hydroxy-1H-indole-2-carbonyl)benzofuran-5-yl)urea 2,2,2-trifluoroacetate]
- Solubility Ethanol ([1]; 2,2,2-trifluoroacetate): 5940 µg/mL (≈ 11.5 mM)
- Solubility Water ([1]; 2,2,2-trifluoroacetate): <100 µg/mL
- IC50 [2]: 0.0002 µM
- IC50 [3]: 1.8 nM
- IC50 [4]: 3.1 nM
- Solubility DMSO [9]: Soluble
- IC50 [5]: 0.00065 µM
- IC50 [6]: 0.02 nM
- IC50 [7]: 0.00074 µM
- IC50 [8]: 0.1 µM

SMILES: CN(C)Cc1c(O)ccc2[nH]c(C(=O)c3cc4cc(NC(=O)Nc5cc(C(C)(C)C)on5)ccc4o3)cc12 [Compound 34c, 1-(5-(tert-Butyl)isoxazol-3-yl)-3-(2-(4-(dimethylamino)methyl)-5-hydroxy-1H-indole-2-carbonyl)benzofuran-5-yl)urea Hydrochloride]
- Solubility Ethanol ([1]; Hydrochloride): 2380 µg/mL
- Solubility Water ([1]; Hydrochloride): 5770 µg/mL
- first death (day of study) ([10]; 20 mg/kg po daily 5 days): 9 days
- study day after which 1 mouse had to be sacrificed ([10]; 20 mg/kg po daily 5 days (treatment group 2)): 20 days
- number of living subjects, day of study 5 ([10]; 20 mg/kg po daily 5 days): 5
- number of living subjects, day of study 6 ([10]; 20 mg/kg po daily 5 days): 5
- number of living subjects, day of study 8 ([10]; 20 mg/kg po daily 5 days): 5
- number of living subjects, day of study 13 ([10]; 20 mg/kg po daily 5 days): 4
- number of living subjects, day of study 26 ([10]; 20 mg/kg po daily 5 days): 4
- number of living subjects, day of study 36 ([10]; 20 mg/kg po daily 5 days): 0
- relative tumor volume, compared with reference compounds ([10]; 20 mg/kg po daily 5 days, Midostaurin 50 mg/kg, Hydrochloride): better results regarding tumor volume measurements than Midostaurin; also recorded: higher efficiency than midostaurin
- number of living subjects, day of study 5 ([10]; 50 mg/kg po daily 5 days): 5
- number of living subjects, day of study 6 ([10]; 50 mg/kg po daily 5 days): 5
- number of living subjects, day of study 8 ([10]; 50 mg/kg po daily 5 days): 5
- number of living subjects, day of study 13 ([10]; 50 mg/kg po daily 5 days): 5
- number of living subjects, day of study 26 ([10]; 50 mg/kg po daily 5 days): 5
- number of living subjects, day of study 36 ([10]; 50 mg/kg po daily 5 days): 5
- deaths until day 36 ([10]; 50 mg/kg po daily 5 days, Hydrochloride): No deaths were observed; also recorded: no deaths were noted
- relative tumor volume, compared with reference compounds ([10]; 50 mg/kg po daily 5 days, references 50 mg/kg, Hydrochloride): similarly active as Quizartinib; also recorded: much more active than Midostaurin; also recorded: significantly increased efficiency of 34c compared to midostaurin; also recorded: comparable to the efficiency of quizartinib at the same dose
- efficacy and tolerability in terms of overall survival / death counts ([10]; 34c 20 and 50 mg/kg, references 50 mg/kg, po daily 5 days, Hydrochloride): better tolerated; also recorded: significantly better efficacy and tolerability in terms of overall survival than midostaurin; also recorded: significantly better efficiency and tolerability (in terms of overall survival) than quizartinib
- relative body weight loss ([10]; po daily 5 days, 34c 20 and 50 mg/kg, Midostaurin and Quizartinib 50 mg/kg): less relative body weight loss
- clinical signs ([11]; 20 mg/kg and 50 mg/kg po treatment groups): no clinical signs observed
- clinical signs ([11]; 75 mg/kg po, the mouse which lost weight, noticed only after dosing, considered not caused by the compound): swelling of the right hind limb and foot
- possible (tolerated) dose according to tolerability study ([11]; female, NOD/SCID, mouse, in vivo, po, 5 days): up to 75 mg/kg
- body weight loss in the dosing phase ([11]; one mouse in the 50 mg/kg po group and one in the 75 mg/kg po group, daily, 5 days): > 10%
